Values joined by “and” are separate entries in the source; they are usually repeats but may differ in a detail not shown here. Equal values may be shown once. Where a name gives a salt, the structure may show the parent alone.
Assays:
systolic blood pressure = assay: Antihypertensive activity, reduction in systolic blood pressure, single oral medication, unanesthetized spontaneous hypertensive rat; assay type: in vivo; details: P.O., single dose, unanesthetized SH rat
Experimental: Antihypertensive activity was determined on the basis of the observed reduction in systolic blood pressure measured according to the method of H. Kersten et al., J. Lab. and Clin. Med. 32, 1090 (1947) following a single oral medication in the unanesthetized spontaneous hypertensive rat described by Okamato et al., Japan Circulation J. 27, 282 (1963).
^a AHD40 = single oral dose required to induce a 40 mm. average

blood pressure = assay: Antihypertensive activity, sustained lowering of blood pressure, repeated oral medication, unanesthetized trained renal hypertensive dog; assay type: in vivo; details: tid.
Description: Antihypertensive activity was also judged on the basis of sustained reduction of blood pressure observed in the unanesthetized trained renal hypertensive dog following repeated oral medication according to the procedure described by Lape et al., Arch.
^b MED10 = minimum repeated oral daily dose required to effect a

hind limb vasculature = assay: Vasodilator activity, perfusion pressure in hind limb vasculature of anesthetized dog; assay type: in vivo
Description: (§1) Vasodilator activity was judged on the basis of observed reduction in perfusion pressure in the hind limb vasculature of the anesthetized dog determined according to the procedure described by Jandhyala et al., European J. Pharm. 17, 357 (1972), and also on the basis of percent reduction in perfusion pressure as measured in the isolated rabbit ear artery according to the method described by De LaLande et al., Aust. J. Exp. Biol. Med. Sci. 43, 639 (1965).
^c AED50 = approximate intraarterial dose required to cause a 50

[1] = tested on: isolated rabbit ear artery; assay: Vasodilator activity, perfusion pressure in isolated rabbit ear artery
Description: as §1
^d Vasodilation is expressed as the percentage reduction in perfusion

β-adrenergic = β-adrenergic blocking activity, inhibition of isoproterenol-elicited heart rate increase in pentobarbitalized dog; assay type: in vivo; details: i.v., pentobarbitalized dog
Experimental: The β-adrenergic blocking activity was determined in the pentobarbitalized dog as judged by the ability of the test compound to inhibit the elevation in heart rate elicited by a 0.5 mcg./kg. i.v. injection of isoproterenol.
^e AED50 = approximate intravenous dose required to cause 50%

[2] = tested on: histamine-induced bronchoconstriction; assay: β-adrenergic stimulant activity, block of histamine-induced bronchoconstriction in the dog; assay type: in vivo
7-day oral LD50 in rats = assay type: in vivo
[3] = tested on: Ouabain-induced arrhythmia; assay: Conversion of ouabain-induced arrhythmia in dogs; assay type: in vivo, mongrel dogs; parameters: key: active (A); inactive (I); details: 5 × 10^-6 M/kg.
Experimental: (§2) The test procedures were carried out as follows.
Na-pentobarbital supplements were given i.v. as needed.
Both parameters were printed out on a Grass polygraph.

Ba++-induced arrhythmia = assay: Conversion of Ba++-induced arrhythmia in rabbits; assay type: in vivo; parameters: key: active (A); inactive (I); details: 1 × 10^-5 M/kg.
Experimental: as §2
Adult rabbits or either sex weighing between 1.7 and 2.3 kg. were anesthetized with 30 to 35 mg./kg. Na-pentobarbital i.v. via a marginal ear vein. Monoplar ECG pin electrodes were inserted for a lead II display on a Model 5 Grass Polygraph using standard electrocardiographic procedures. A 23 ga. hypodermic needle, attached via a polyethylene catheter to a 10 cc. syringe, was inserted into the same vein as was used for anesthesia. A BaCl2.2H2 O solution in saline was then infused at a constant volume of 0.2 cc/min. from a Harvard Apparatus Model 600 infusion pump. This infusion was not stopped until termination of the experiment. In some studies barium chloride in distilled water was used without detectable differences. The standard rate of BaCl2.2H2 O infusion was established at 0.3 mg./kg./min. (1.2×10^-6 M/kg./min.), and the concentration was adjusted appropriately in each case to accommodate the weight of the rabbit.
When the desired arrhythmia was established, the test compound was introduced as a water or saline solution into the marginal ear vein of the unused ear. The volume used was between 0.5 and 2.0 cc./kg. and was injected as a bolus over approximately 30 seconds. Deviations from standard vehicle, rate of injection and total volume administered were at the discretion of the operator. The standard initial dose of an unknown compound on the first rabbit was 5×10^-5 M/kg. In general, two to three rabbits were used to determine anti-arrhythmic activity and the dose range of activity; multiple doses were administered. Once activity and dose was indicated, two additional rabbits were employed to confirm anti-arrhythmic activity against a multifocal tachycardia.

isolated cat atria = assay: Cardiotonic test procedure I, isolated cat atria; details: for Increase in right atrial force / Increase in right atrial rate: in vitro
Experimental: The efficacy of this compound was judged, in vitro, on the basis of percent increase in contractile force in isolated cat atria and papillary muscle and, in vitro, on the basis of percent increase in cardiac contractile force in the intact anesthetized dog. Male cats weighing from 0.8 to 1.5 kg. were anesthetized with α-chloralose (80 mg./kg. i.p.). The chest was opened, the heart excised and the two atria dissected. A silk suture was tied to each of two opposite sides of the right atrium. One side of the atrium was tied to a glass rod and then mounted in a 50 ml. organ bath filled with Tyrode's solution. […] The transducer was then connected to a Grass polygraph and the force and rate of atrial contraction was recorded continuously. The left atrium was treated similarly using silver wire instead of silk sutures. The silver wire also served as a stimulating electrode. Both atria were mounted in the same bath. The right atrium was beating spontaneously due to the presence of the sinoatrial node, while the left atrium was stimulated electrically at a rate of 3 beats/sec. by suprathreshold rectangular pulses of 5 millisecond duration. The Tyrode's solution bathing the atria was of the following composition (in mM): NaCl 136.87, KCl 5.36, NaH2 PO4 0.41, CaCl2 1.80, MgCl2 6H2 O 1.05, NaHCO3 11.90, glucose 5.55 and EDTA 0.04. […] The preparation was left to equilibrate for one hour before any drug was added. The bathing fluid was changed 3 to 4 times during the equilibration time. At the end of equilibration period, the drug dissolved in a vehicle or the vehicle alone was added to the tissue bath and the full response recorded. The vehicle used was Tyrode' s solution to which, if required, sufficient acid was added to cause solution of the drug. […] Generally, a dose response study of at least 3 doses was done in the same preparation.

papillary muscle = assay: Cardiotonic test procedure IB, isolated cat papillary muscle; details: in vitro
Experimental: The efficacy of this compound was judged, in vitro, on the basis of percent increase in contractile force in isolated cat atria and papillary muscle and, in vitro, on the basis of percent increase in cardiac contractile force in the intact anesthetized dog. Male cats 0.8 to 1.5 kg. were anethetized with α-chloralose (80 mg./kg. i.p.). The chest was opened and the heart excised. The heart was dipped and shaken in Tyrode's solution for the removal of blood from the cavities. The right ventricle was then slit open and the small and thin (about 1 mm. in diameter and 4 to 7 mm. in length) papillary muscles were dissected out. A silver wire was attached to each of the two ends of the papillary muscle. The ventricular end was attached to a platinum electrode and mounted in a tissue bath containing Tyrode's solution described above. The silver wire on the valvular end of the muscle was attached to a force displacement transducer for the measurement of the force and rate of muscle contraction. The muscle was stimulated at a rate of 3 beats/sec. by suprathreshold rectangular pulses of 5 millisecond duration. The rest of the procedure was continued as described above.

[4] = tested on: cardiac contractile force; assay: Cardiotonic test procedure II, intact anesthetized dog; assay type: in vivo, mongrel dogs; details: i.v. infusion 10 mcg./kg./min. over 3 hrs.
Experimental: The efficacy of this compound was judged, in vitro, on the basis of percent increase in contractile force in isolated cat atria and papillary muscle and, in vitro, on the basis of percent increase in cardiac contractile force in the intact anesthetized dog. The in vivo test procedure used is described as follows: Mongrel dogs of both sexes and varying in weight from 9 to 15 kg. were anesthetized with 30 mg./kg. pentobarbital sodium administered intravenously. The trachea was exposed and cannulated. The tracheal cannula was then attached to a Harvard respiratory pump using room air. The right femoral artery and vein were cannulated. […] The venous cannula was used for the intravenous administration of drugs. Pin electrodes were attached to the right forelimb and left hindlimb. The electrodes were then connected to a Grass polygraph for the continuous recording of the standard limb lead II electrocardiogram. A ventro-dorsal incision at the third inter-costal space was made, the ribs laterally retracted and the pericardium slit open to expose the myocardium. The base of the aorta was dissected and a flow probe was fitted around it. The flow probe was attached to a square wave electromagnetic flowmeter (Carolina Medical Electronics). The flowmeter was then connected to a Grass polygraph for the continuous recording of aortic blood flow. This flow was used as an index of cardiac output (actual cardiac output is aortic blood flow+coronary blood flow). Cardiac contractile force was measured by suturing a Walton-Brodie strain gauge to the wall of the right ventricle. At the end of the surgical procedure, the animal was left to rest and equilibrate for one hour with continuous recording of blood pressure, EKG, cardiac contractile force and aortic blood flow. After the equilibration period, the vehicle or the drug dissolved in the vehicle was administered by intravenous infusion (i.v. inf.), intravenous bolus (i.v. bol.) or intraduodenally (i.d.) and the response of all the parameters measured to drug administration was recorded continuously for different periods of times depending on the route of drug administration. When the route of administration was i.v. inf., the drug was administered until a peak effect was reached and infusion was then maintained for ten minutes. The above-described test systems were standardized using dopamine.

[5] = Local anesthetic activity (method of Bulbring and Wadja); assay type: in vivo; details: compared with procaine
Experimental: D. Following a procedure similar to that described in Example 2G but using 2.5 g. (0.0049 mole) of dextrorotatory 4-hydroxy-α-<{[3-(4-methoxyphenyl)-1-methylpropyl]amino}methyl>- 3-(methylthio)benzenemethanol acetate salt (m.p. 124°-126° C., [α]D^25 =+7.7°) and 375 mg. of commercial 40% peracetic acid there was obtained 2.0 g. of 4-hydroxy-α-<{[3-(4-methoxyphenyl)-1-methylpropyl]amino}methyl>-3-(methylsulfinyl)benzenemethanol acetate salt as an amorphous yellow powder [α]D^25 =+4.2° containing a mixture of 4 diastereomeric sulfoxides. […] Exp. Therap. 85, 78 (1945).

COc1ccc(CC(C)NCC(O)c2ccc(O)c([S+](C)[O-])c2)cc1 (stereo not drawn) [Example 1I, 4-hydroxy-α-<{[2-(4-methoxyphenyl)-1-methylethyl]amino}methyl>-3-(methylsulfinyl)benzenemethanol hydrochloride]
Antihypertensive activity SH Rat AHD40 (single oral dose required to induce a 40 mm. average reduction in systolic blood pressure) (systolic blood pressure): 2.0 mg/kg
Renal Hypertensive Dog MED10 (minimum repeated oral daily dose for sustained lowering of blood pressure of 10% or greater) (blood pressure): 1.25 mg/kg
ED50 (hind limb vasculature; Canis lupus familiaris, read-out: Vasodilator activity Dog-Leg Perfusion AED50 (approximate intraarterial dose for 50 reduction in perfusion pressure)): 0.25 mg/kg
Rabbit Ear Artery vasodilation (percentage reduction in perfusion pressure from control level) ([1]; 6.25 × 10^-5 M, 62.5 µM): 53%
Dog β-blockade AED50 (approximate intravenous dose for 50% inhibition of isoproterenol-elicited heart rate increase) (β-adrenergic): 0.04 mg/kg
β-adrenergic stimulant activity [2]: ability to block histamine-induced bronchoconstriction in the dog

COc1ccc(CCC(C)NCC(O)c2ccc(O)c([S+](C)[O-])c2)cc1 (stereo not drawn) [Example 5E, 4-hydroxy-α-<{[3-(4-methoxyphenyl)-1-methylpropyl]amino}methyl>-3-(methylsulfinyl)benzenemethanol acetate salt]
Body weight and gross tissue changes (7-day oral LD50 in rats; animals sacrificed 7 days post-medication): No changes in body weight and no gross tissue changes
7-day oral LD50 (7-day oral LD50 in rats; oral, rats, two separate batches, acetate salt, 10080 min): 1940 mg/kg
LD50 at 168 h (7-day oral LD50 in rats; rat, in vivo, po, rats, two separate batches): 1850 mg/kg

COc1ccc(CCC(C)NCC(O)c2ccc(O)c([S+](C)[O-])c2)cc1 (stereo not drawn) [Example 5H, 4-hydroxy-α-<{[3-(4-methoxyphenyl)-1-methylpropyl]amino}methyl>-3-(methylsulfinyl)benzenemethanol hydrochloride]
Rabbit Ear Artery vasodilation (percentage reduction in perfusion pressure from control level) ([1]; 1 × 10^-4 M, 100 µM, hydrochloride): 64%
Conversion of Ouabain-induced Arrhythmia [3]: A
Conversion of Ba++-induced Arrhythmia (Ba++-induced arrhythmia): A
Increase in right atrial force (isolated cat atria; 1 mg./ml.): 52%
Increase in right atrial rate (isolated cat atria; 1 mg./ml.): 62%
Increase in right atrial force (isolated cat atria; 10 mcg./ml.): 46%
Increase in right atrial rate (isolated cat atria; 10 mcg./ml.): 53%
Cardiotonic activity (in words) (isolated cat atria; one or more of the cardiotonic test procedures): useful cardiotonic activity
Decrease in papillary muscle force (papillary muscle; 1 mg./ml.): 14%
Decrease in papillary muscle force (papillary muscle; 10 mcg./ml.): 12%
Change in heart rate ([4]; 2 of 3 dogs): no significant change in heart rate
Maximum increase in cardiac contractile force ([4]; 2 of 3 dogs, I, hydrochloride): 25% and 42%
Decrease in contractile force ([4]; remaining dog): 30%
Decrease in heart rate ([4]; remaining dog): 33%

COc1ccc(CCC(C)NCC(O)c2ccc(O)c([S+](C)[O-])c2)cc1 (stereo not drawn) [Example 5D, 4-hydroxy-α-<{[3-(4-methoxyphenyl)-1-methylpropyl]amino}methyl>-3-(methylsulfinyl)benzenemethanol acetate salt]
Antihypertensive activity SH Rat AHD40 (single oral dose required to induce a 40 mm. average reduction in systolic blood pressure) (systolic blood pressure; acetate salt): 3.0 mg/kg
Renal Hypertensive Dog MED10 (minimum repeated oral daily dose for sustained lowering of blood pressure of 10% or greater) (blood pressure): 0.0316 mg/kg
Vasodilator activity Dog-Leg Perfusion AED50 (approximate intraarterial dose for 50 reduction in perfusion pressure) (hind limb vasculature; intraarterial, anesthetized dog hind limb, acetate salt): 0.5 mg/kg
Rabbit Ear Artery vasodilation (percentage reduction in perfusion pressure from control level) ([1]; 5 × 10^-5 M, 50 µM, acetate salt): 49%
Dog β-blockade AED50 (approximate intravenous dose for 50% inhibition of isoproterenol-elicited heart rate increase) (β-adrenergic; acetate salt): 0.125 mg/kg
Local anesthetic activity [5]: equi-active with procaine as a local anesthetic

From patent publication US4374149A, “α-{[(Arylalkyl)amino]alkyl}-4-hydroxy-3-(lower-alkylsul finyl)benzenemethanols” (Sterling Drug Inc., priority 1978, dated 1983)
